Broadly, the IC50 is the concentration that gives 50% inhibition. Higher therefore signals weaker potency.

In patent US8895571B2, “Isoindolinone and pyrrolopyridinone derivatives as Akt inhibitors” (Incyte Corporation, priority 2011, dated 2014) one finds IC50 data, which are given here for 18 molecules.

Common to all, as to format: biochemical
One assay addresses T1, Full length Akt3 (Homo sapiens, UniProt Q9Y243).
T1 construct: Full length Akt1 (cat #P2999), Akt2 (cat #PV3184), Akt3 (cat #PV3185); purchased PerkinElmer PV3185
The experiment in a line: In vitro Akt kinase enzymatic assay (HTRF), Akt3. The note with it: 0.6 nM Akt3, substrate solution with 5 mM ATP, 25° C. 1 hr. As to the method:
(§1) Compounds herein were tested for inhibitory activity of Akt targets according to the following in vitro assay. Full length Akt1 (cat #P2999), Akt2 (cat #PV3184), Akt3 (cat #PV3185), peptide substrate, Ulight-Crosstide (cat #TRF0106-M), Ultra-Europium anti-phospho-Crosstide (cat #TRF-0202-M), and 10×LANCE detection buffer (cat #CR97-100) were purchased from PerkinElmer. In general, assay buffer conditions were chosen based on obtaining optimal enzymatic and linear activities. The assay buffer contains 50 mM HEPES, 10 mM MgCl2, 5 mM DTT, 0.005% Tween20 at pH 7.8. Compound stock (0.001 mM) was prepared in DMSO. The compound plate was prepared by 3-fold and 11-point serial dilutions. 0.5 μL of the compound in DMSO was transferred from the compound plate to the assay plate. Enzyme solution (0.4 nM of Akt1, 0.6 nM of Akt2 or 0.6 nM of Akt3) was prepared in the assay buffer. Note that the enzyme concentration given is based on the given stock concentration reported by the vendor. 0.1 μM substrate solution was prepared in the assay buffer with addition of 5 mM ATP. 10 μL of the enzyme solution was added to the assay plate and then 10 μL of substrate solution was added to the assay plate. The plate was protected from light and the reaction was incubated at 25° C. for 1 hr. The reaction was stopped by adding 10 μL of a solution containing 30 mM EDTA, and 3 nM Ultra Europium anti-phospho Crosstide in 1× detection buffer. The plate was incubated for 15-30 min at room temperature and HTRF (homogenous time resolved fluorescence) was measured on a plate reader. Percentage of inhibition was calculated for each concentration and IC50 value was generated from curve fitting. See Table 8 for data related to compounds of the examples.
A general note: Time-resolved FRET reads energy transfer from a long-lived donor to a nearby acceptor.

The target in another assay is T2, Full length Akt2 (Homo sapiens, UniProt P31751).
T2 construct: Full length Akt1 (cat #P2999), Akt2 (cat #PV3184); purchased PerkinElmer PV3184
T2 sequence (P31751 whole entry): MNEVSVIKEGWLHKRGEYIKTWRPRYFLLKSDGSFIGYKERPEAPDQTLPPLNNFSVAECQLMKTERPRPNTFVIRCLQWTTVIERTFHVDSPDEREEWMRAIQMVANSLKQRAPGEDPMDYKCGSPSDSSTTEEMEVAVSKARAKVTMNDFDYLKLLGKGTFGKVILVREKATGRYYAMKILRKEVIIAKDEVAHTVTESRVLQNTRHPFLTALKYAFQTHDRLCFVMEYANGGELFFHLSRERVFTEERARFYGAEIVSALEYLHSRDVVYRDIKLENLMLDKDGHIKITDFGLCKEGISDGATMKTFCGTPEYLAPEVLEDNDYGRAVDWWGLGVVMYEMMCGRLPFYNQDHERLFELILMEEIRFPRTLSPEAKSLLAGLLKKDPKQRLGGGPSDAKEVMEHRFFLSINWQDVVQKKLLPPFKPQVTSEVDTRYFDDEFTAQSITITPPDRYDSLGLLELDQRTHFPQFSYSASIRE
Nature of the assay: In vitro Akt kinase enzymatic assay (HTRF), Akt2. The note with it: 0.6 nM Akt2, substrate solution with 5 mM ATP, 25° C. 1 hr. As to the method:
as §1

The next assay addresses T3, Full length PKA (Homo sapiens, UniProt P17612).
T3 construct: Full length PKA (cat #P2912); purchased Invitrogen P2912
The experiment in a line: PKA in vitro enzymatic assay (HTRF). The note with it: 0.035 nM enzyme solution, substrate solution with 5 mM ATP, 25° C. 1 hr. As to the method: Full length PKA (cat #P2912), peptide substrate, fluorescein CREBtide peptide (cat #PV3508), Tb-Crebtide p-S133 Ab (cat #PV3566), and Lanthascreen TR-FRET Dilution Buffer stored (part # PV3574) were purchased from Invitrogen. In general, assay buffer conditions were chosen based on obtaining optimal and linear enzymatic activities. The assay buffer contains 50 mM HEPES, 10 mM MgCl2, 5 mM DTT, 0.005% Tween20 at pH 7.8. Compound stock (0.001 mM) was prepared in DMSO. The compound plate was prepared by 3-fold and 11-point serial dilutions. 0.5 μL of the compound in DMSO was transferred from the compound plate to the assay plate. 0.035 nM enzyme solution was prepared in the assay buffer. Note that the enzyme concentration given is based on the given stock concentration reported by the vendor. 0.1 μM substrate solution was prepared in the assay buffer with addition of 5 mM ATP. 10 μL of the enzyme solution was added to the assay plate and then 10 μL of substrate solution was added to the assay plate. The plate was protected from light and the reaction was incubated at 25° C. for 1 hr. The reaction was stopped by adding 10 μL of a solution containing 30 mM EDTA, and 1.5 nM Tb-Crebtide p-S133 Ab in 1× detection buffer. The plate was incubated for 15-30 min at room temperature and HTRF (homogenous time resolved fluorescence) was measured on a plate reader. Percentage of inhibition was calculated for each concentration and IC50 value was generated from curve fitting. See Table 8 for data related to compounds of the examples.

A further assay deals with T4, Full length Akt1 (Homo sapiens, UniProt P31749).
T4 construct: Full length Akt1 (cat #P2999); purchased PerkinElmer P2999
T4 sequence (P31749 whole entry): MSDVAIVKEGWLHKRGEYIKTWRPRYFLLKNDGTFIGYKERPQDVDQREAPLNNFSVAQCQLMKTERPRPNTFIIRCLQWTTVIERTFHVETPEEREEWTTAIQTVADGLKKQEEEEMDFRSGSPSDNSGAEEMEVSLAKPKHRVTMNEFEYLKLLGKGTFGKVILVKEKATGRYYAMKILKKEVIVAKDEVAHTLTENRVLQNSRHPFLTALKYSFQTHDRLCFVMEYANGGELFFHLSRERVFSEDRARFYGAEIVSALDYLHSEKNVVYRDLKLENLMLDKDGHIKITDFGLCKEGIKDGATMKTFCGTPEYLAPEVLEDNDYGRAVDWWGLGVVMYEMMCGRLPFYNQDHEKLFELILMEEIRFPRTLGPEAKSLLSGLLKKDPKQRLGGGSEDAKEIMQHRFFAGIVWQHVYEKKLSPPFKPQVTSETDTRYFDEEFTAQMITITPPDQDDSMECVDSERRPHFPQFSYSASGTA
The experiment in a line: In vitro Akt kinase enzymatic assay (HTRF), Akt1. As to conditions: 0.4 nM Akt1, substrate solution with 5 mM ATP, 25° C. 1 hr. As to the method: as §1

T1 sequence (Q9Y243 whole entry): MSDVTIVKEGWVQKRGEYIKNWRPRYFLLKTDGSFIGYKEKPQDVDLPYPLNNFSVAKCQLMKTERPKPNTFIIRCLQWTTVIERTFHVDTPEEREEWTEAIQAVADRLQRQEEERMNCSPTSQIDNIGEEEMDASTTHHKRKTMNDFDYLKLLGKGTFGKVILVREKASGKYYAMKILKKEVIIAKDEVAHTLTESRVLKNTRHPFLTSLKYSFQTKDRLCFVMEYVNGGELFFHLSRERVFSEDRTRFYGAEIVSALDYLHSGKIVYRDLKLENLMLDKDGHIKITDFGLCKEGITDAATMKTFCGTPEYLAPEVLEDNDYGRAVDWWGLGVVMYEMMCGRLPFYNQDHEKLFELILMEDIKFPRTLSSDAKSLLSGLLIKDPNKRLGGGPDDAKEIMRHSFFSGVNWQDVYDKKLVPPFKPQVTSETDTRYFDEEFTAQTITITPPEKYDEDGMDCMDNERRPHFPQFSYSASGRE

As for `COc1cc(C[C@@H](CN)N2Cc3cc(-c4ccnn4C)ccc3C2=O)ccn1` [Example 77, 2-{(1S)-2-amino-1-[(2-methoxypyridin-4-yl)methyl]ethyl}-5-(1-methyl-1H-pyrazol-5-yl)isoindolin-1-one], the IC50 was more than 5 µM on Full length Akt3, more than 5 µM against Full length Akt2, more than 5 µM against Full length PKA and 0.5 to 5 µM against Full length Akt1.

For `Cn1ncc(Cl)c1-c1ccc2c(c1)CN(C(CN)c1ccccc1)C2=O` (stereo in doubt) [Example 114, 2-[(1R)-2-amino-1-phenylethyl]-5-(4-chloro-1-methyl-1H-pyrazol-5-yl)isoindolin-1-one], the IC50 against Full length Akt3 is 0.5 to 5 µM; on Full length Akt2 it was 0.5 to 5 µM; against Full length PKA it was more than 5 µM; against Full length Akt1, less than 0.5 µM.

In the case of `Cn1ncc(-c2cccc3ccccc23)c1-c1ccc2c(c1)CN([C@H](CN)Cc1cccc(F)c1)C2=O` [Example 22, 2-[(1S)-2-amino-1-(3-fluorobenzyl)ethyl]-5-[1-methyl-4-(1-naphthyl)-1H-pyrazol-5-yl]isoindolin-1-one], the IC50 against Full length Akt3, on Full length Akt2, against Full length PKA and against Full length Akt1 was more than 5 µM throughout.

On to `Cn1cc(-c2cccc(C[C@@H](CN)N3Cc4cc(-c5c(Cl)cnn5C)ccc4C3=O)c2)cn1` [Example 70, 2-{(1S)-2-amino-1-[3-(1-methyl-1H-pyrazol-4-yl)benzyl]ethyl}-5-(4-chloro-1-methyl-1H-pyrazol-5-yl)isoindolin-1-one], for which the IC50 is 0.5 to 5 µM against Full length Akt3, more than 5 µM at Full length Akt2, more than 5 µM against Full length PKA and less than 0.5 µM against Full length Akt1.

As for `CN(C)CC(c1ccccc1)N1Cc2cc(-c3ccnn3C)ccc2C1=O` (stereo not drawn) [Example 115], the IC50 against Full length Akt3 was more than 5 µM; at Full length Akt2, more than 5 µM; against Full length PKA, more than 5 µM; against Full length Akt1, 0.5 to 5 µM.

For the molecule `Cn1nccc1-c1cnn(C)c1-c1ccc2c(c1)CN([C@H](CN)Cc1cccc(F)c1)C2=O` [Example 17, 2-[(1S)-2-amino-1-(3-fluorobenzyl)ethyl]-5-(1′,2-dimethyl-1′H,2H-3,4′-bipyrazol-5′-yl)isoindolin-1-one], the IC50 against Full length Akt3, against Full length Akt2, at Full length PKA and against Full length Akt1 was more than 5 µM throughout.

With `Cn1nccc1-c1ccc2c(c1)CN([C@H](CN)Cc1cscn1)C2=O` [Example 82, 2-[(1S)-2-amino-1-(1,3-thiazol-4-ylmethyl)ethyl]-5-(1-methyl-1H-pyrazol-5-yl)isoindolin-1-one], the concentration for half-maximal inhibition (IC50) was 0.5 to 5 µM against Full length Akt3, 0.5 to 5 µM on Full length Akt2, more than 5 µM at Full length PKA and less than 0.5 µM on Full length Akt1.

As for `CC(C)NC[C@H](Cc1cccc(F)c1)N1Cc2cc(-c3c(Cl)cnn3C)ccc2C1=O` [Example 32, 5-(4-chloro-1-methyl-1H-pyrazol-5-yl)-2-[(1S)-1-(3-fluorobenzyl)-2-(isopropylamino)ethyl]isoindolin-1-one], the IC50 is 0.5 to 5 µM against Full length Akt3, 0.5 to 5 µM against Full length Akt2, more than 5 µM on Full length PKA and 0.5 to 5 µM at Full length Akt1.

For the molecule `CC(C)OCc1cnn(C)c1-c1ccc2c(c1)CN([C@@H](CN)c1ccccc1)C2=O` [Example 122, 2-[(1R)-2-amino-1-phenylethyl]-5-[4-(2-propoxymethyl)-1-methyl-1H-pyrazol-5-yl]iso-indolin-1-one], the IC50 at Full length Akt3 is 0.5 to 5 µM; at Full length Akt2, 0.5 to 5 µM; against Full length PKA it was more than 5 µM; at Full length Akt1 it was less than 0.5 µM.

As for `COc1cccc(C(CN)N2Cc3cc(-c4ccnn4C)ccc3C2=O)c1` (stereo not drawn) [Example 119, 2-[2-amino-1-(3-methoxyphenyl)ethyl]-5-(1-methyl-1H-pyrazol-5-yl)isoindolin-1-one], the IC50 was 0.5 to 5 µM at Full length Akt3, less than 0.5 µM on Full length Akt2, 0.5 to 5 µM against Full length PKA and less than 0.5 µM against Full length Akt1.

In the case of `CCNC[C@H](Cc1cccc(F)c1)N1Cc2cc(-c3c(Cl)cnn3C)ccc2C1=O` [Example 31, 5-(4-chloro-1-methyl-1H-pyrazol-5-yl)-2-[(1S)-2-(ethylamino)-1-(3-fluorobenzyl)ethyl]isoindolin-1-one], the IC50 on Full length Akt3 is 0.5 to 5 µM; against Full length Akt2, 0.5 to 5 µM; on Full length PKA it was more than 5 µM; on Full length Akt1, less than 0.5 µM.

Consider `CSCc1cnn(C)c1-c1ccc2c(c1)CN([C@H](CN)Cc1ccccc1)C2=O` [Example 59, 2-[(1S)-2-amino-1-benzyl-ethyl]-5-[4-(methylthiomethyl)-1-methyl-1H-pyrazol-5-yl]isoindolin-1-one], for which the IC50 at Full length Akt3 is 0.5 to 5 µM; against Full length Akt2, 0.5 to 5 µM; against Full length PKA, more than 5 µM; on Full length Akt1, less than 0.5 µM.

With `Cn1ncc(Cl)c1-c1ccc2c(n1)CN([C@H](CN)Cc1ccccc1)C2=O` [Example 112, 6-[(1S)-2-amino-1-benzylethyl]-2-(4-chloro-1-methyl-1H-pyrazol-5-yl)-6,7-dihydro-5H-pyrrolo[3,4-b]pyridin-5-one], the IC50 against Full length Akt3 is 0.5 to 5 µM; at Full length Akt2, 0.5 to 5 µM; against Full length PKA, more than 5 µM; against Full length Akt1, 0.5 to 5 µM.

`Cn1nccc1-c1ccc2c(c1)CN(C(CN)c1ccc(F)cc1)C2=O` (stereo not drawn) [Example 118, 2-[2-amino-1-(4-fluorophenyl)ethyl]-5-(1-methyl-1H-pyrazol-5-yl)isoindolin-1-one]: the IC50 was more than 5 µM at Full length Akt3, 0.5 to 5 µM against Full length Akt2, more than 5 µM against Full length PKA and less than 0.5 µM against Full length Akt1.

In the case of `Cn1nccc1-c1ccc2c(c1)CN([C@H](CN)Cc1cccc(-c3ccsc3)c1)C2=O` [Example 84, 2-{(1S)-2-amino-1-[3-(3-thienyl)benzyl]ethyl}-5-(1-methyl-1H-pyrazol-5-yl)isoindolin-1-one], the IC50 was 0.5 to 5 µM at Full length Akt3, 0.5 to 5 µM against Full length Akt2, more than 5 µM on Full length PKA and less than 0.5 µM against Full length Akt1.

Regarding `Cn1cc(-c2cccc(C[C@@H](CN)N3Cc4cc(-c5ccnn5C)ccc4C3=O)c2)cn1` [Example 83, 2-{(1S)-2-amino-1-[3-(1-methyl-1H-pyrazol-4-yl)benzyl]ethyl}-5-(1-methyl-1H-pyrazol-5-yl)isoindolin-1-one], the IC50 against Full length Akt3 is more than 5 µM; at Full length Akt2, 0.5 to 5 µM; against Full length PKA, more than 5 µM; on Full length Akt1 it was 0.5 to 5 µM.

On to `Cn1ncc(Cl)c1-c1ccc2c(c1)CN([C@H](CNC1CC1)Cc1cccc(F)c1)C2=O` [Example 33, 5-(4-chloro-1-methyl-1H-pyrazol-5-yl)-2-[(1S)-2-(cyclopropylamino)-1-(3-fluorobenzyl)ethyl]isoindolin-1-one], for which the IC50 against Full length Akt3 was 0.5 to 5 µM; on Full length Akt2, 0.5 to 5 µM; against Full length PKA, more than 5 µM; against Full length Akt1 it was less than 0.5 µM.

For the molecule `CCCOCc1cnn(C)c1-c1cc2c(cn1)C(=O)N([C@H](CN)Cc1cccc(F)c1)C2` [Example 96, 2-[(1S)-2-amino-1-(3-fluorobenzyl)ethyl]-6-[4-(1-propoxymethyl)-1-methyl-1H-pyrazol-5-yl]-1,2-dihydro-3H-pyrrolo[3,4-c]pyridin-3-one], the IC50 against Full length Akt3 was less than 0.5 µM; against Full length Akt2 it was less than 0.5 µM; against Full length PKA, more than 5 µM; against Full length Akt1 it was less than 0.5 µM.
